Where two headings read alike, the source gives them in different places.
Tests used:
[1] = biological target: EGFR (Homo sapiens (Human), UniProt P00533); assay: ErbB enzyme assay (CisBio HTRF KinEASE-TK), Assay 3; format: biochemical
Procedure: (§1) Compound potencies were determined using CisBio's HTRF Kinease-TK assay technology. The kinases were incubated with 250 nM TK-substrate biotin (CisBio, part of cat #62TK0PEC) at 1 mM ATP along with test compounds in a buffer consisting of 25 mM HEPES, pH 7.4, 10 mM MgCl2, 0.01% Triton X-100, and 2% DMSO in a volume of 8 μL. Compounds were prepared as a three-fold serial dilution in DMSO and added to the assay to give the appropriate final concentration. After 30-minute incubation at 22° C., the reaction was quenched by adding 8 μL of quench solution containing 62.5 nM Sa-XL665 and 0.25× TK-Ab-Cryptate in HTRF detection buffer (all from CisBio, part of cat #62TK0PEC). After a 1-hour incubation at 22° C., the extent of reaction was determined using a PerkinElmer EnVision multimode plate reader via HTRF dual wavelength detection, and the percent of control (POC) was calculated using a ratiometric emission factor. One hundred POC was determined using DMSO only samples (no compound present), and 0 POC was determined using pre-quenched control reactions. A 4-parameter logistic curve was fit to the POC values as a function of the concentration of compound, and the IC50 value was the point where the best-fit curve crossed 50 POC.
(§2) Enzyme lots and concentration used are in Table 2.

[2] = biological target: ErbB2 insYVMA (HER2-YVMA, SEQ ID NO: 2) (Homo sapiens, UniProt P04626, INS775YVMA/P1170A); assay: biochemical; settings: ErbB2 insYVMA enzyme assay
[3] = biological target: ErbB2 with Exon 20 YVMA insertion (HER2-YVMA) (Homo sapiens (Human), UniProt P04626, INS775YVMA); assay: Cellular phosphorylation assay, constitutive ErbB2 phosphorylation (Y1196) in engineered NIH 3T3 cells, Assay 4; format: cell-based
Procedure: Serially diluted compounds were added to the plates for 1 hour at 37° C./5% CO2. EGFR WT cells were stimulated with 100 ng/ml rEGF for an additional 10 minutes at 37° C./5% CO2. After compound incubation, medium was removed from the cells, which were then fixed in 3.7% formaldehyde in PBS at room temperature for 20 minutes. Following a wash with PBS, cells were permeabilized with 100% methanol at room temperature for 10 minutes. Cells were then washed with PBS/0.05% Tween-20 and blocked with Odyssey blocking buffer (LI-COR Biosciences) for at least 1 hour at room temperature. Antibodies to phosphorylated ErbB2 (Y1196, Cell Signaling #6942) or phosphorylated EGFR (Y1068, Cell Signaling #3777) and GAPDH (Millipore #MAB374) were added to the cells in blocking buffer containing 0.05% azide and incubated overnight at 4° C. After washing with PBS/0.05° i° Tween-20, the cells were incubated with fluorescently labeled secondary anti-rabbit antibody (LiCOR, IRDye 800CW #926-32211) and anti-mouse antibody (Molecular Probes, Alexa Fluor 680 #A21058) for 1 hour at room temperature in the dark. Cells were then washed and analyzed for fluorescence at both wavelengths using the Odyssey Infrared Imaging System (LI-COR Biosciences). Phosphorylated ErbB2 and EGFR signal was normalized to GAPDH signal to generate curves and calculate IC50 values.

[4] = biological target: ErbB2 WT (Homo sapiens (Human), UniProt P04626); assay: ErbB enzyme assay (CisBio HTRF KinEASE-TK), Assay 2; format: biochemical
Procedure: as §1, with “Compounds were prepared as a three-fold serial dilution in DMSO and added to the assay to give the appropriate final concentration.” left out, “reactions.” for “reactions. A 4-parameter logistic curve was fit to the POC values as a function of the concentration of compound, and the IC50 value was the point where the best-fit curve crossed 50 POC.”
as §2

ErbB2 WT, sequence (P04626 23-1255): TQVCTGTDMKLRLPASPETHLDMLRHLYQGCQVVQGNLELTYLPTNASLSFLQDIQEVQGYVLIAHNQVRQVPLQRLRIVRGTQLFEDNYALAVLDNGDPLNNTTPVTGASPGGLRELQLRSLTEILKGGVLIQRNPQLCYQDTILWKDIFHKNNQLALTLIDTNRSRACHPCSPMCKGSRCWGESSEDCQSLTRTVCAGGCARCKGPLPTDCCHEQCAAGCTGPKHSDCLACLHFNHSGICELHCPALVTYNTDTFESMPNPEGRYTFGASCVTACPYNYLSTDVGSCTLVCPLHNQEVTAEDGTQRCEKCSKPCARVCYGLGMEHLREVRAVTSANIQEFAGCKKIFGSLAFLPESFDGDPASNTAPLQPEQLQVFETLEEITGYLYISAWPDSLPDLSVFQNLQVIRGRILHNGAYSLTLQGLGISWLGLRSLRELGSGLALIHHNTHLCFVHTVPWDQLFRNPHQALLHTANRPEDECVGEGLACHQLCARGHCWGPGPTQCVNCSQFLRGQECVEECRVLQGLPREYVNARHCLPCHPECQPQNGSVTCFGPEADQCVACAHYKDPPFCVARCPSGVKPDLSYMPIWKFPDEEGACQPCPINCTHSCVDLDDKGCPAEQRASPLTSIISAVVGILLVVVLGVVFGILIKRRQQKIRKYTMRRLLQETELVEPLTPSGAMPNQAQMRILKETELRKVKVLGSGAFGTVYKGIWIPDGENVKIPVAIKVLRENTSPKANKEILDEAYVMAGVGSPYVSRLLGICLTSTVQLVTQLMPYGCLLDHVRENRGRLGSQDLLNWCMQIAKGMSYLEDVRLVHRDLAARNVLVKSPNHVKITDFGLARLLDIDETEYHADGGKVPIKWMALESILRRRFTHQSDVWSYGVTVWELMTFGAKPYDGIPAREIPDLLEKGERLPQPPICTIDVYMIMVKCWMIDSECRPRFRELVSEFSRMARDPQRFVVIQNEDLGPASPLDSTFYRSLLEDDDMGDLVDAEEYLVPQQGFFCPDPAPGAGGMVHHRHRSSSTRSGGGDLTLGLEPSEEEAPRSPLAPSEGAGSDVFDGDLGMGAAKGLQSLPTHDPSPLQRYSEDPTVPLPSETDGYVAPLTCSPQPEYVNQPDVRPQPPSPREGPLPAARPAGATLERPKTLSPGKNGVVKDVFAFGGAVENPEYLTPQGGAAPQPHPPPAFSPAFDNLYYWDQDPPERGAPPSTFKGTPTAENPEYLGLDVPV
ErbB2 with Exon 20 YVMA insertion (HER2-YVMA), sequence (P04626 other isoform, or with tags, fused parts or gaps ins YVMA behind 775): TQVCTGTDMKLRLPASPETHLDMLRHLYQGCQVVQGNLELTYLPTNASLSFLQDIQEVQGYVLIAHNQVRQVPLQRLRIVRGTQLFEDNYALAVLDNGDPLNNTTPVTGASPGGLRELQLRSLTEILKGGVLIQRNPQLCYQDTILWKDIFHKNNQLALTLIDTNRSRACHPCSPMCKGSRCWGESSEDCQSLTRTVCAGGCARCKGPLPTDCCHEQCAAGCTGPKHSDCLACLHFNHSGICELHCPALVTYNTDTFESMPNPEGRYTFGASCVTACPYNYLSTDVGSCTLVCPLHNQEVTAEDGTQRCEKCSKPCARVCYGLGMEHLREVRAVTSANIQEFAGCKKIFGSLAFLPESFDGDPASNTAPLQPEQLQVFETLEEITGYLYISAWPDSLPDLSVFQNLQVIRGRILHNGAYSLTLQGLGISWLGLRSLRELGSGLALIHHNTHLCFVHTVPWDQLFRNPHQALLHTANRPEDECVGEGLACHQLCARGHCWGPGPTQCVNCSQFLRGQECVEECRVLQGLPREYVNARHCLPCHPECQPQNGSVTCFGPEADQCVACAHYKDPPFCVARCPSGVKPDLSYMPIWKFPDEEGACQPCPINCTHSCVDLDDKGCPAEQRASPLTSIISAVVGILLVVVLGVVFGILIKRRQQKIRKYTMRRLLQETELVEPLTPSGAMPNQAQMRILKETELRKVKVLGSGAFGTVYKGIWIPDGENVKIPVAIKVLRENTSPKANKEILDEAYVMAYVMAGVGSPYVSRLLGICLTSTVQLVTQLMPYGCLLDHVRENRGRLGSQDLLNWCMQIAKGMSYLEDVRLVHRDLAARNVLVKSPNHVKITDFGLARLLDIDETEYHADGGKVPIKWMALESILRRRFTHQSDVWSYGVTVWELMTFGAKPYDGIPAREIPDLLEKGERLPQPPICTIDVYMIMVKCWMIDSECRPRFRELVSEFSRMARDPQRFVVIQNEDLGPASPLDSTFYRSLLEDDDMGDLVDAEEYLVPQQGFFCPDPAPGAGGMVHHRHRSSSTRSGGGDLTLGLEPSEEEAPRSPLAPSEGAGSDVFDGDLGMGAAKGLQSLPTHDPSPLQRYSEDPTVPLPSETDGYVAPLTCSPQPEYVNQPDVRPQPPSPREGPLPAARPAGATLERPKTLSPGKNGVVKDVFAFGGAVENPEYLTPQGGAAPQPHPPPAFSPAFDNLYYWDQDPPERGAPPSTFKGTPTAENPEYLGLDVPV
ErbB2 insYVMA (HER2-YVMA, SEQ ID NO: 2), sequence (P04626 with tags, fused parts or gaps INS775YVMA/P1170A limits assumed): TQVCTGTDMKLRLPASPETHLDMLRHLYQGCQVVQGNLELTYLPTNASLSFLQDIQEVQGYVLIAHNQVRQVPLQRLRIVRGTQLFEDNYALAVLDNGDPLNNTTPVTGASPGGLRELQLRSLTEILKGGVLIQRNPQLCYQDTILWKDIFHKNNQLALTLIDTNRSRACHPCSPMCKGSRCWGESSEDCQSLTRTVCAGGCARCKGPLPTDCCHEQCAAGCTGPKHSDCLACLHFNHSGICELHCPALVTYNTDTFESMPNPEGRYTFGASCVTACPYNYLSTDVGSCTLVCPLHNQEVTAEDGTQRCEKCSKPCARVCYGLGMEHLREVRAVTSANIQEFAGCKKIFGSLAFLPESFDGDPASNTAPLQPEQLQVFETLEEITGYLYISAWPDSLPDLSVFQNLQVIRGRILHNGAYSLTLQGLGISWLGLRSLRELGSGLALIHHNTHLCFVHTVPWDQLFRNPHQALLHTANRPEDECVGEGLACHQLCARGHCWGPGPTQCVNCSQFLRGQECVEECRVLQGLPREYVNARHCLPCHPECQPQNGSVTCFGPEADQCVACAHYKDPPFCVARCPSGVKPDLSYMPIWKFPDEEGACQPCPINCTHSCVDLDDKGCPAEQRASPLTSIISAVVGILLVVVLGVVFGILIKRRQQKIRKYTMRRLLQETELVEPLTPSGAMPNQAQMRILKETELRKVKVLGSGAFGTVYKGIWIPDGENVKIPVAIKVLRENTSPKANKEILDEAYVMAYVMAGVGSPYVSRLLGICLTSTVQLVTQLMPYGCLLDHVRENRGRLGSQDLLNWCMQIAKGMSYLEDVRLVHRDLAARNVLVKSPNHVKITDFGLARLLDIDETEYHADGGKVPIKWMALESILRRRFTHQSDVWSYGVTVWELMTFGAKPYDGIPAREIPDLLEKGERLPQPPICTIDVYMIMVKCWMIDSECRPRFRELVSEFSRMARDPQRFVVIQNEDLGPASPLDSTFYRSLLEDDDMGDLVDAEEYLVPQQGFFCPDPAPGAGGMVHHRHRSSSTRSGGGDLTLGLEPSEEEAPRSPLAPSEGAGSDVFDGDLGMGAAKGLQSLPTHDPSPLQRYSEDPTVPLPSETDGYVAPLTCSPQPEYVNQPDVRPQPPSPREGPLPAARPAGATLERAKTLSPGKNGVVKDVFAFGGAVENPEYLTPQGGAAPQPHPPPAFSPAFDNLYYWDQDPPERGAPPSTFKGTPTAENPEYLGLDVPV
EGFR, sequence (P00533 25-1210): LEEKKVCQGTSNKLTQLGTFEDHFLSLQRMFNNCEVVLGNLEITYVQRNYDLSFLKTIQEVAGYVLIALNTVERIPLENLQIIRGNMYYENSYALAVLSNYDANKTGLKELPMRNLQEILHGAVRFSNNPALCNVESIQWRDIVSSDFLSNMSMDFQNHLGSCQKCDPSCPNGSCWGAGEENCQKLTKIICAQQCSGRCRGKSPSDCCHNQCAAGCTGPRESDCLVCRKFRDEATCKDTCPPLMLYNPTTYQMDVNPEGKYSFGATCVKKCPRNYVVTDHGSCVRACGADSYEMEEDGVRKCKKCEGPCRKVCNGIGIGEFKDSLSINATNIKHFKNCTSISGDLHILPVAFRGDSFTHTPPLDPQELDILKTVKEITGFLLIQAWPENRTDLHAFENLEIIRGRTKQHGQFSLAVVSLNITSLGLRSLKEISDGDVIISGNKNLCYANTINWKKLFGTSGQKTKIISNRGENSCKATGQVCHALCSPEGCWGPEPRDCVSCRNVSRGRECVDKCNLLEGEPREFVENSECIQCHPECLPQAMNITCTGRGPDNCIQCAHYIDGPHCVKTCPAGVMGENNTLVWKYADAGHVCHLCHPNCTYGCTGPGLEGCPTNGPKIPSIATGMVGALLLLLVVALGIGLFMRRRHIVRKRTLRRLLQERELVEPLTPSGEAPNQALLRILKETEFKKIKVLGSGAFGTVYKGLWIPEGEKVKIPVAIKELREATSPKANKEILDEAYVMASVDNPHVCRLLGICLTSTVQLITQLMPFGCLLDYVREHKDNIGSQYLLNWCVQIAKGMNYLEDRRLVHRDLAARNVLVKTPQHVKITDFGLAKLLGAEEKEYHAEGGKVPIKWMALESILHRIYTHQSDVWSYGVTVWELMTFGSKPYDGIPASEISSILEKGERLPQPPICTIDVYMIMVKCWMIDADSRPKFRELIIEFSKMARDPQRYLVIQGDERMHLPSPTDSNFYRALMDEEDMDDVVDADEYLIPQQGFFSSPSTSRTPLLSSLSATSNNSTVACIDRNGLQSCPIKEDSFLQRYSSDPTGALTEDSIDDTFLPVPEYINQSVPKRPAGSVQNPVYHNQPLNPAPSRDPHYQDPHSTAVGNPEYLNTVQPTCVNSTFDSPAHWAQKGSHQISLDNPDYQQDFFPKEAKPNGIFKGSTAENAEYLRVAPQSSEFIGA

SMILES | IC50 [1] | IC50 ([2]; Assay 1 IC50 (nM)) | IC50 [3] | IC50 [4] | IC50 ([2]; read-out: Assay 1 IC50)
CCn1cnc2cc(Oc3ccc(Nc4ncnc5cnc(N6CCOCC6)nc45)cc3C)ccc21 [Example 75, N-(4-((1-ethyl-1H-benzo[d]imidazol-5-yl)oxy)-3-methylphenyl)-6-morpholinopyrimido[5,4-d]pyrimidin-4-amine 2,2,2-trifluoroacetate] | ≥ 10000 nM | 51.8 nM | 23.9 nM | 141 nM | 
COCCOc1ncc2ncnc(Nc3ccc(Oc4ccc5c(c4)ncn5C)c(C)c3)c2n1 [Example 76, 6-(2-methoxyethoxy)-N-(3-methyl-4-((1-methyl-1H-benzo[d]imidazol-5-yl)oxy)phenyl)pyrimido[5,4-d]pyrimidin-4-amine 2,2,2-trifluoroacetate] | ≥ 10000 nM | 337 nM | 1300 nM | 2340 nM | 
Cn1cnc2cc(Oc3ccc(Nc4ncnc5cnc(N6CCOCC6)nc45)cc3Cl)ccc21 [Example 81, N-(3-chloro-4-((1-methyl-1H-benzo[d]imidazol-5-yl)oxy)phenyl)-6-morpholinopyrimido[5,4-d]pyrimidin-4-amine 2,2,2-trifluoroacetate] | ≥ 10000 nM | 153 nM | 77.1 nM | 847 nM | 
CC(=O)N1C2CC1CN(c1ncc3ncnc(Nc4ccc(Oc5ccc6c(c5)ncn6C)c(C)c4)c3n1)C2 [Example 89, 1-(3-(8-((3-methyl-4-((1-methyl-1H-benzo[d]imidazol-5-yl)oxy)phenyl)amino)pyrimido[5,4-d]pyrimidin-2-yl)-3,6-diazabicyclo[3.1.1]heptan-6-yl)ethan-1-one] | ≥ 10000 nM |  | 187 nM | 285 nM | 68.1 nM
Cc1cc(Nc2ncnc3cnc(OCC(F)F)nc23)ccc1Oc1ccc2c(c1)ncn2C [Example 177, 6-(2,2-difluoroethoxy)-N-(3-methyl-4-((1-methyl-1H-benzo[d]imidazol-5-yl)oxy)phenyl)pyrimido[5,4-d]pyrimidin-4-amine] | ≥ 10000 nM |  | 109 nM | 150 nM | 53.2 nM
CCCOc1ncc2ncnc(Nc3ccc(Oc4ccc5c(c4)ncn5C)c(C)c3)c2n1 [Example 221] | ≥ 10000 nM |  | 548 nM | 334 nM | 122 nM
Cc1cc(Nc2ncnc3cnc(N4CC5CC5(C)C4)nc23)ccc1Oc1ccc2c(c1)ncn2C (centres unmarked) [Example 225] | ≥ 10000 nM |  | 85.4 nM | 218 nM | 149 nM
CO[C@@H]1CCCN(c2ncc3ncnc(Nc4ccc(Oc5ccc6c(c5)ncn6C)c(C)c4)c3n2)C1 [Example 227] | ≥ 10000 nM |  | 53.8 nM | 66.9 nM | 47.4 nM
Cc1cc(Nc2ncnc3cnc(N4CCC[C@@H]4C(F)(F)F)nc23)ccc1Oc1ccc2c(c1)ncn2C [Example 229] | ≥ 10000 nM |  | 165 nM | 376 nM | 171 nM
Cc1cc(Nc2ncnc3cnc(N4CCC(F)(F)CC4)nc23)ccc1Oc1ccc2c(c1)ncn2C [Example 236] | ≥ 10000 nM |  | 89.9 nM | 352 nM | 149 nM
COC1CC2(C1)CN(c1ncc3ncnc(Nc4ccc(Oc5ccc6c(c5)ncn6C)c(C)c4)c3n1)C2 [Example 237] | ≥ 10000 nM |  | 71.6 nM | 70.2 nM | 32 nM
Cc1cc(Nc2ncnc3cnc(N4CCC4C(F)(F)F)nc23)ccc1Oc1ccc2c(c1)ncn2C (centres unmarked) [Example 238] | ≥ 10000 nM |  | 163 nM | 227 nM | 99.3 nM
Cc1cc(Nc2ncnc3cnc(N4CCCCC4)nc23)ccc1Oc1ccc2c(c1)ncn2C [Example 242] | ≥ 10000 nM |  | 76.3 nM | 130 nM | 111 nM
Cc1cc(Nc2ncnc3cnc(N4CC(OC(F)F)C4)nc23)ccc1Oc1ccc2c(c1)ncn2C [Example 244] | ≥ 10000 nM |  | 92.2 nM | 107 nM | 41.9 nM
Cc1cc(Nc2ncnc3cnc(N4CC(COC(F)F)C4)nc23)ccc1Oc1ccc2c(c1)ncn2C [Example 245] | ≥ 10000 nM |  | 109 nM | 142 nM | 50.4 nM
Cc1cc(Nc2ncnc3cnc(N4CC(C)(O)C4)nc23)ccc1Oc1ccc2c(c1)ncn2C [Example 246] | ≥ 10000 nM |  | 103 nM | 70.8 nM | 28.2 nM
CO[C@H]1CCCN(c2ncc3ncnc(Nc4ccc(Oc5ccc6c(c5)ncn6C)c(C)c4)c3n2)C1 [Example 248] | ≥ 10000 nM |  | 65.7 nM | 122 nM | 57.4 nM
Cc1cc(Nc2ncnc3cnc(N4CC[C@H](C)C4=O)nc23)ccc1Oc1ccc2c(c1)ncn2C [Example 250] | ≥ 10000 nM |  | 54.6 nM | 67.6 nM | 46.3 nM
Cc1cc(Nc2ncnc3cnc(N4C5COCC4C5)nc23)ccc1Oc1ccc2c(c1)ncn2C [Example 255] | ≥ 10000 nM |  | 160 nM | 434 nM | 113 nM
Cc1cc(Nc2ncnc3cnc(N4CCOC[C@@H]4C)nc23)ccc1Oc1ccc2c(c1)ncn2C [Example 258] | ≥ 10000 nM |  | 51.4 nM | 177 nM | 88.3 nM
Cc1cc(Nc2ncnc3cnc(O[C@@H]4CNC[C@@H]4F)nc23)ccc1Oc1ccc2c(c1)ncn2C [Example 283] | ≥ 10000 nM |  | 261 nM | 301 nM | 39.5 nM
Cc1cc(Nc2ncnc3cnc(N4CC[C@H]4C(F)F)nc23)ccc1Oc1ccc2c(c1)ncn2C [Example 388] | ≥ 10000 nM |  | 52.2 nM | 89.4 nM | 62.1 nM
Cc1cc(Nc2ncnc3cnc(N4CC[C@@H]4C(C)(C)O)nc23)ccc1Oc1ccc2c(c1)ncn2C [Example 397] | ≥ 10000 nM |  | 115 nM | 144 nM | 20.3 nM
Cc1cc(Nc2ncnc3cnc(N4CC[C@H]4C(C)(C)O)nc23)ccc1Oc1ccc2c(c1)ncn2C [Example 407] | ≥ 10000 nM |  | 84.1 nM | 117 nM | 31.5 nM
Cc1cc(Nc2ncnc3cnc(N4CCC5(COC5)C4)nc23)ccc1Oc1ccc2c(c1)ncn2C [Example 422] | ≥ 10000 nM |  | 96.7 nM | 93.2 nM | 58.4 nM
Cc1cc(Nc2ncnc3cnc(N4CCCCS4(=O)=O)nc23)ccc1Oc1ccc2c(c1)ncn2C [Example 437] | ≥ 10000 nM |  | 95.8 nM | 146 nM | 40.8 nM
Cc1c(Oc2ccc3c(c2)ncn3C)ccc(Nc2ncnc3cnc(N4CC5CC4CO5)nc23)c1F (centres unmarked) [Example 454] | 4110 nM |  | 54.7 nM | 48.1 nM | 15.3 nM
Cc1cc(Nc2ncnc3cnc(N4CC[Si](C)(C)CC4)nc23)ccc1Oc1ccc2c(c1)ncn2C [Example 474] | ≥ 10000 nM | 254 nM | 559 nM | 727 nM | 
Cc1cc(Nc2ncnc3cnc(OCC(C)(C)O)nc23)ccc1Oc1ccc2c(c1)ncn2C [Example 476] | ≥ 10000 nM |  | 155 nM | 232 nM | 39.5 nM

Reference: patent publication US11834453B2, “Substituted pyrimido[5,4-d]pyrimidines as HER2 inhibitors” (Array BioPharma Inc., priority 2020, dated 2023)
